1 compound from patent EP0302967A2, “Quinazoline derivative, processes for its production, and cerebral dysfunction remedying agent comprising it as active ingredient” (priority 1987, dated 1989) can be followed below.

Series [1] relates to Male mice of the ddY strain. The series can be described thus: Anti-hypoxic activity: brain protection against normobaric hypoxia (survival time in 100% nitrogen). In kind it is in vivo. Conditions: one hour before 100% nitrogen, control group taken as 100 %, mean ± standard error, p<0.01. The protocol:
Male mice of the ddY strain (body weight 20-25g, 5 per group) were orally administered with the compound of the invention (dihydrochloride) dissolved in a 1% gum arabic solution. One hour after the administration, the mouse was put in a transparent plastic container (capacity 27 liters) through which 100% nitrogen was passed at a rate of 80 liters/min. The time elapsed until the animal died (the survival time) was measured, and compared with that obtained with the control group (the group to which 1% gum arabic solution was administered).

The subject of series [2] is Male mice of the ddY strain. Put plainly: Anti-CO2-induced amnesia activity (one-trial passive avoidance response). In kind it is in vivo. Conditions: retrieval 24 hours later, max 300 seconds. The protocol:
Male mice of the ddY strain (body weight 20 - -30 g, 30 per group) were used. Anti-CO₂-induced amnesia activity was determined by using one-trial passive avoidance response as an index. The experimental device consisted of two compartments, one illuminated and the other dark, with a guillotine door in the boundary of the two compartments permitting free passage of the mice through it. In an acquisition trial, a mouse was placed in the illuminated compartment and allowed to enter the dark one. As soon as the mouse entered the dark compartment, the door was shut, and an electrical shock (0.5 mA, 0.2 sec.) was applied through the grid floor. Thus, the mouse was caused to learn that it receives an electric shock upon entering the dark room. In a retrieval trial, the mouse was again placed in the illuminated compartment 24 hours after the acquisition trial, and the time elapsed until it entered the dark compartment (response latency) was measured to an extent of 300 seconds at the longest. (One-trial passive avoidance response) Treatment of inducing amnesia by carbon dioxide was performed by putting the mouse in a 1.6-liter plastic container having a gas intake opening and an gas discharging opening immediately after the acquisition trial, and passing 100% carbon dioxide gas for 14 seconds at a flow rate of 8 liters/min. […]

In series [3] the test system is Male mice of the ddY strain. The series can be described thus: Anti-scopolamine-induced amnesia activity (one-trial passive avoidance response). The series is classed as in vivo. As to conditions: scopolamine hydrobromide 1 mg/kg i.p.; for Mean latency (seconds): p<0.01. The protocol:
Male mice of the ddY strain (body weight 20-25g, 20 per group) were used, and the activity of the test compound on deficit of memory induced by scopolamine hydrobromide (a muscarinic acetylcholine receptor antagonist) was examined using one-trial passive avoidance response as an index. Using the same experimental device as in Test Example 1, the same acquisition trial and retrieval trial as in Test Example 1 were carried out (one-trial passive avoidanse response). Scopolamine hydrobromide (1 mg/kg) was intra peritoneally (i.p.) administered to the animals 20 minutes before the acquisition trial. The compound of the invention (dihydrochloride) was dissolved in 1 % gum arabic solution, and intraperitoneally administered immediately after the acquisition trial, and orally (p.o.) administered 60 minutes before the acquisition trial. A 1% solution of gum arabic was administered to the control group.

Series [4] relates to Male mice of the ddY strain. The series can be described thus: Anti-hypoxic activity: brain protection against complete ischemia by decapitation (gasping persistent time). In kind it is in vivo. As to conditions: decapitated one hour later, control group taken as 100 %, mean ± standard error. The protocol: Male mice of the ddY strain (body weight 20-25g, 5 per group) were orally given the compound of the invention (dihydrochloride) dissolved in 1% gum arabic solution. One hour later, the mice were decapitated, and the time elapsed until a gasping-like mouth opening movement appearing after decapitation ceased (gasping persistent time) was measured, and compared with that obtained with the control group (the group to which 1% gum arabic solution was administered).

Series [5] deals with brain homogenate. The series can be described thus: Lipid peroxide formation inhibiting activity (antioxidant activity), MDA formed by autoxidation. As to conditions: for Antioxidant activity (n=4) Mean ± standard error (%): percent inhibition of autoxidation on the brain homogenate, 37 °C, 30 minutes. The series is classed as biochemical, Rats. As for the experimental part: The effect of the test compound on the formation of lipid peroxide by autoxidation was determined by the amount of malondialdehyde (MDA) formed.
Rats were decapitated, and the cerebrum was taken out and homogenized with 4 ml, per gram of the cerebrum, of 50 mM phosphate saline-buffer (pH 7.4) and centrifuged (2800 rpm, 10 minutes). The supernatant was taken into a 10 ml test tube to obtain a brain homogenate. It was frozen at -70 °C and stored.
The brain homogenate was defrozen, and immediately then, diluted to 10-fold with the aforesaid phosphate saline-buffer. A 2 ml portion of the dilution was taken into a 10 ml test tube cooled with ice, and used to measure its antioxidant activity. Twenty microliters of an aqueous solution of the compound of this invention (dihydrochloride) was added. The amount of MDA immediately after the addition was measured as shown below (MDA 0 time). The mixture was incubated at 37 °C for 30 minutes. The reaction was stopped by adding 400 microliters of 35% perchloric acid solution. After cooling with ice, the cooled mixture was centrifuged (2800 rpm, 10 minutes). To 1 ml of the supernatant, 0.5 ml of 0.5 % thiobarbituric acid solution dissolved in 50% acetic acid solution was added, and the mixture was heated at 100 °C for 15 minutes. After cooling with ice, the absorbance of the solution at 532 nm was measured, and the amount of MDA formed was determined (MDAtest).
As a control, the amount of MDA (MDAcont) was determined as above.
The antioxidant activity of the compound of the invention was expressed in terms of percent inhibition of autoxidation on the brain homogenate. The calculation was based on the following equation. [formula]

The nature of series [6]: Acute toxicity (LD50 by the Weil method). Conditions: male, ddY, mouse, in vivo, dead animals counted one week later, read-out: LD₅₀. As for the experimental part: Male ddY mice (body weight 20 - 26 g, 5 per group) were allowed to fast overnight. The compound of this invention (dihydrochloride) dissolved in distilled water was orally (p.o.) administered. From the number of dead animals counted one week later, the LD₅₀ (p.o.) was calculated by the Weil method.
Then, the compound of this invention (dihydrochloride) was dissolved in saline and intraperitoneally (i.p.) administered to the mice, and the LD₅₀ value (i.p.) was measured similarly.

Like-named read-outs stand apart in the source and are kept apart here. Marks after values point to notes of the source that are not given here.

Regarding `C=CCN1CCN(c2nc(OCCCCC)c3ccccc3n2)CC1.Cl.Cl` [Compound of the invention (2HCl), 2-(4-allyl-1-piperazinyl)-4-pentyloxyquinazoline dihydrochloride], the “Survival time (%)” value was 122 ± 5 [1)**2)] % in series [1] (10 mg/kg orally) and 151 ± 7 % in series [1] (30 mg/kg orally). In addition, the “Mean latency” value came out at 185.8 s in series [2] (10 mg/kg orally 60 minutes before acquisition trial, control group 155.3) and 59.8 s in series [3] (10 mg/kg (as free base) p.o. 60 minutes before acquisition trial, control group 63.1). Moreover, the “Mean latency (seconds)” value in series [2] (30 mg/kg orally 60 minutes before acquisition trial, control group 155.3, p<0.01) is on record as 230.0**1) seconds; in series [3] (3 mg/kg (as free base) i.p. immediately after acquisition trial, control group 92.0) it was 190.4 **2) seconds; in series [3] (10 mg/kg (as free base) i.p. immediately after acquisition trial, control group 92.0) it was 185.1 ** seconds; in series [3] (30 mg/kg (as free base) i.p. immediately after acquisition trial, control group 92.0), 208.7 ** seconds; in series [3] (30 mg/kg (as free base) p.o. 60 minutes before acquisition trial, control group 63.1) it was 144.6 ** seconds. The “Mean gasping persistent time (%)” value in series [4] (10 mg/kg orally) is reported as 107 ± 6%; in series [4] (30 mg/kg orally, p<0.01), 139 ± 6 ** 2) %; in series [4] (100 mg/kg orally, p<0.01) it was 187 ± 8 %. Further, the “Antioxidant activity (n=4) Mean ± standard error (%)” value turned out to be 6.4 ± 7.7% in series [5] (10 µM), 27.1 ± 6.8% in series [5] (30 µM), 77.9 ± 3.1% in series [5] (100 µM) and 93.4 ± 2.2% in series [5] (300 µM). The IC50 in series [5] (inhibition of autoxidation (MDA formation) on the brain homogenate, read-out: 50% inhibition concentration (IC₅₀)) stood at 52 µM. Further, the LD50 at 1 week was determined as 220 mg/kg in series [6] (ip, in saline) and 1270 mg/kg in series [6] (po, in distilled water, fasted overnight).
